Assay [1] concerns myelopoiesis stem cells in the bone marrow. Nature of the assay: Flow cytometry analysis (FACs) of stem cells in bone marrow of osteoporosis animal models. In kind it is in vivo, mouse. As to conditions: OVX mice, 50 μg/kg i.p. twice a day for 4 weeks; bone marrow 1 hour after last dose. The method, then: (§1) To make an osteoporosis model, 10-18 12 weeks old female mice per group underwent ovarian ablation. A week later, 50 μg/kg of NPY(21-28), NPY D^25(21-28), NPY D^26(21-28), NPY D^25,26(21-28), Osteopep2, NPY and 100 μl of PBS(Gibco) were intraperitoneally administered twice a day for 4 weeks at 12 hour intervals. Alendronate (Sigma), used as a competitive drug, was intraperitoneally administered once a week for 4 weeks at a dose of 50 μg/kg. As a control group, only Sham model of osteoporosis was performed by subcutaneous dissection of female mouse. Mice were placed in experimental groups using the Block randomization method, and all mouse experiments were approved through the Kyungpook National University Institutional Animal Care and Use Committee.
To examine the changes in the number of myelopoiesis stem cells in the bone marrow of the mouse, the bone marrows of mice were collected and analyzed by FACs using five antibodies such as Lineage, Sca-1, c-kit, CD150, and CD48 as markers of myelopoiesis stem cells. For the analysis of myelopoiesis stem cell, bone marrow collected from the tibias and the femurs in the animal models of osteoporosis injected with each peptide was removed from red blood cells with ammonium chloride solution (Stem Cell Technologies, Inc. 1:4). […] The remaining cells were reacted for 30 minutes at 4° C. using Sca-1-PECY7, c-kit-APC, CD150-PE, and CD48-FITC (BD science) antibodies, and then were analyzed by LSRII (BD science) flow cytometry.
(§2) In order to investigate whether the NPY (21-28) of the present invention affects the blood release of myelopoiesis stem cells in the animal models of osteoporosis, the following experiments were carried out according to the methods of Examples 1-1, 1-3, 1-4, and 1-5. […] Weight change was measured weekly, and bone marrow and blood were collected one hour after the last dose at 4 weeks, and the release of myelopoiesis progenitor and stem cells into blood was analyzed. […]
(In general: Flow cytometry measures light scatter and fluorescence of single cells or particles in a stream.)

Assay [2] concerns adhesion factors of hematopoietic stem cell in bone marrow (Sdf-1a, KitI, Angpt1). The assay is described as follows: expression of adhesion factors in bone marrow of osteoporosis animal models, real-time quantitative PCR. As to conditions: OVX mice, 50 μg/kg i.p. twice a day for 4 weeks; bone marrow 1 hour after last administration. It counts as in vivo, mouse. The method, then: as §1
Real-time quantitative PCR was used to measure expression levels of hematopoietic stem cell adhesion factors (Sdf-1a, KitI, Angpt1) present in osteoblasts. Total RNA was extracted from cell eluate and bone marrow cells using the RNeasy Plus mini kit (Qiagen, Korea, Ltd), and cDNAs were synthesized from 5 μg total RNA using a kit in Clontech (Mountain View, Calif.). In addition, using a Corbett research RG-6000 real-time PCR instrument, Real-time quantitative PCR was performed at 95° C. for 10 minutes; at 95° C., for 10 seconds; at 58° C., for 15 seconds; at 72° C. for 20 seconds as one cycle, and 40 cycles were repeated.
as §2, with “1-5. In order to make animal models of osteoporosis, 12 weeks old C57BL/6 female mice were subjected to ovarian ablation for 10 to 18 animals in each group.” for “1-5.”

Entries after “also recorded” stand apart in the source; their conditions may differ. Non-standard residues stand in square brackets, D forms with d. No end group written: not given here.

As to “NPY D^25(21-28): peptide in which arginine, the fifth amino acid of the amino acid sequence of NPY (21-28), is modified to D-type (YSAL[dR]HYI)”, in assay [1], the “number of myelopoiesis stem cells remaining in the bone marrow (FACs)” value is “reduced”. In addition, the “expression levels of major adhesion factors Sdf-1a, KitI, and Angpt1 in bone marrow” value (“expression levels” below) in assay [2] is on record as “decreased; also recorded: generally superior to those of NPY”.

For “NPY D^25,26(21-28): peptide in which both the fifth and sixth amino acids of NPY (21-28) are modified to D-form (YSAL[dR][dH]YI)”, the “number of myelopoiesis stem cells remaining in the bone marrow (FACs)” value in assay [1] was “reduced”. For the same substance, the “expression levels” value in assay [2] is recorded as “decreased; also recorded: generally superior to those of NPY”.

For the substance YSALRHYI [NPY (21-28)], the “number of myelopoiesis stem cells remaining in the bone marrow (FACs)” value in assay [1] is reported as “reduced”. In addition, in assay [2], the “expression levels” value was “decreased”.
